Reference: patent US20240101531A1, “PYRIDINAMINE DERIVATIVES AND THEIR USE AS POTASSIUM CHANNEL MODULATORS” (Xenon Pharmaceuticals Inc., priority 2022, published 2024)
Structures can show the parent of a compound that is named as a salt.

What follows are compounds tested against human KV7.2/KV7.3 (Homo sapiens (Human), UniProt O43525+O43526) (assay: Potassium flux assay (IPG-2 AM dye)). Settings: TREX HEK 293 or HEK 293 cells expressing human KV7.2/KV7.3; arithmetic mean values.
Assay type: cell-based
Source text: This potassium flux assay employs the cell-permeable, potassium-sensitive dye, IPG-2 AM, to quantify potassium ion flux through potassium channels.
In general, TREX HEK 293 or HEK 293 cells were stably transfected with either an inducible or non-inducible expression vector containing the full-length cDNA coding for the desired human KV7.2/KV7.3 or in combination with another full-length cDNA for a second desired human KV7 potassium channel. Potassium channel-expressing cell lines were induced with tetracycline (1 μg/mL), if required, and plated on 384-well poly-D-lysine (PDL)-coated plates in culture media (DMEM, containing 10% FBS and 1% L-glutamine). After overnight incubation, culture media was removed and cells were loaded with 5 μM IPG-2 AM dye for 1 hour in Assay buffer (140 mM NaCl, 20 mM RbCl, 2 mM CaCl2, 1 mM MgCl2, 10 mM HEPES (4-(2-hydroxyethyl)-1-piperazineethanesulfonic acid buffer), 10 mM glucose, adjusted with Tris to pH 7.4). Excess dye was removed, and cells incubated at room temperature for 20 minutes with or without test compound. A Hamamatsu FDSS μCell was used to perform a 1:1 addition of K challenge buffer (150 mM NaCl, 10 mM HEPES, 2 mM CaCl2, 10 mM KCl, 1 mM MgCl2, 10 mM glucose, adjusted with Tris to pH 7.4 for human KV7.2/KV7.3, and simultaneously read plates at excitation wavelength of 530 nm and emission wavelength of 558 nm. Non-potassium channel-mediated potassium influx was determined in the presence of DMSO, and maximal influx was determined in the presence of a known KV7.x channel modulator. For each test compound, a concentration response curve was generated with 16 concentrations points, 2-fold serial dilution starting at 30 μM and an EC50 value was determined.

EC50	SMILES
1000 to 10000 nM	O[C@@H]1COC[C@@H]1Oc1ccc2c(Nc3ccc(Cl)nc3)nccc2c1 (racemic) [Example 79, rac-(3R,4S)-4-((1-((6-chloropyridin-3-yl)amino)isoquinolin-6-yl)oxy)tetrahydrofuran-3-ol]
< 1000 nM	O[C@@H]1CCC[C@H](Oc2ccc3c(Nc4ccc(Cl)nc4)nccc3c2)C1 (racemic) [Example 95, rac-(1R,3S)-3-((1-((6-chloropyridin-3-yl)amino)isoquinolin-6-yl)oxy)cyclohexan-1-ol]
< 1000 nM	O[C@H]1CC[C@@H](Oc2ccc3c(Nc4ccc(Cl)nc4)nccc3c2)C1 (racemic) [Example 102, rac-(1S,3R)-3-((1-((6-chloropyridin-3-yl)amino)isoquinolin-6-yl)oxy)cyclopentan-1-ol]
< 1000 nM	O[C@@H]1CC[C@@H](Oc2ccc3c(Nc4ccc(Cl)nc4)nccc3c2)C1 (racemic) [Example 103, rac-(1R,3R)-3-((1-((6-chloropyridin-3-yl)amino)isoquinolin-6-yl)oxy)cyclopentan-1-ol]
< 1000 nM	N#CC1(COc2ccc3c(Nc4ccc(Cl)nc4)nccc3c2)CCOC1 (racemic) [Example 124, 3-(((1-((6-chloropyridin-3-yl)amino)isoquinolin-6-yl)oxy)methyl)tetrahydrofuran-3-carbonitrile]
< 1000 nM	O[C@]1(C(F)(F)F)CCC[C@H](Oc2ccc3c(Nc4cnc(Cl)nc4)nccc3c2)C1 (racemic) [Example 145, rac-(1R,3S)-3-((1-((2-chloropyrimidin-5-yl)amino)isoquinolin-6-yl)oxy)-1-(trifluoromethyl)cyclohexan-1-ol]
< 1000 nM	CC(Oc1ccc2c(Nc3ccc(Cl)nc3)nccc2c1)c1cnn(C)c1 (racemic) [Example 170, N-(6-chloropyridin-3-yl)-6-(1-(1-methyl-1H-pyrazol-4-yl)ethoxy)isoquinolin-1-amine]
1000 to 10000 nM	Cc1nn(C)cc1C(C)Oc1ccc2c(Nc3ccc(Cl)nc3)nccc2c1 (racemic) [Example 173, N-(6-chloropyridin-3-yl)-6-(1-(1,3-dimethyl-1H-pyrazol-4-yl)ethoxy)isoquinolin-1-amine]
< 1000 nM	CO[C@@H]1CCC[C@H](Oc2ccc3c(Nc4cnc(Cl)nc4)nccc3c2)C1 (racemic) [Example 360, cis-N-(2-chloropyrimidin-5-yl)-6-(((1S,3R)-3-methoxycyclohexyl)oxy)isoquinolin-1-amine]
< 1000 nM	O[C@@H]1CCCC[C@@H]1Oc1ccc2c(Nc3ccc(Cl)nc3)nccc2c1 (relative stereo) [Example 142, cis-2-((1-((6-chloropyridin-3-yl)amino)isoquinolin-6-yl)oxy)cyclohexan-1-ol]
< 1000 nM	O[C@@H]1CCCC[C@H]1Oc1ccc2c(Nc3ccc(Cl)nc3)nccc2c1 (relative stereo) [Example 143, trans-2-((1-((6-chloropyridin-3-yl)amino)isoquinolin-6-yl)oxy)cyclohexan-1-ol]
< 1000 nM	O[C@@H]1CCC[C@H](Oc2ccc3c(Nc4cnc(Cl)nc4)nccc3c2)C1 (relative stereo) [Example 348, cis-3-((1-((2-chloropyrimidin-5-yl)amino)isoquinolin-6-yl)oxy)cyclohexan-1-ol]
< 1000 nM	O[C@@H]1CCC[C@@H](Oc2ccc3c(Nc4ccc(Cl)nc4)nccc3c2)C1 (relative stereo) [Example 354, trans-3-((1-((6-chloropyridin-3-yl)amino)isoquinolin-6-yl)oxy)cyclohexan-1-ol]
1000 to 10000 nM	N=[S@]1(=O)CCC[C@@H](COc2ccc3c(Nc4cnc(Cl)nc4)nccc3c2)C1 (relative stereo) [Example 366, cis-3-(((1-((2-chloropyrimidin-5-yl)amino)isoquinolin-6-yl)oxy)methyl)-1-iminohexahydro-1λ^6-thiopyran 1-oxide]
< 1000 nM	N=[S@@]1(=O)CCC[C@@H](COc2ccc3c(Nc4cnc(Cl)nc4)nccc3c2)C1 (relative stereo) [Example 367, trans-3-(((1-((2-chloropyrimidin-5-yl)amino)isoquinolin-6-yl)oxy)methyl)-1-iminohexahydro-1λ^6-thiopyran 1-oxide]
< 1000 nM	N#CC1(COc2ccc3c(Nc4ccc(Cl)nc4)nccc3c2)CCOC1 (stereo in doubt) [Example 125, (R)-3-(((1-((6-chloropyridin-3-yl)amino)isoquinolin-6-yl)oxy)methyl)tetrahydrofuran-3-carbonitrile]
< 1000 nM	N#CC1(COc2ccc3c(Nc4ccc(Cl)nc4)nccc3c2)CCOC1 (stereo in doubt) [Example 126, (S)-3-(((1-((6-chloropyridin-3-yl)amino)isoquinolin-6-yl)oxy)methyl)tetrahydrofuran-3-carbonitrile]
1000 to 10000 nM	CS(=O)(=Nc1ccc2c(Nc3ccc(Cl)nc3)nccc2c1)C1CC1 (stereo in doubt) [Example 273, (R)-((1-((6-chloropyridin-3-yl)amino)isoquinolin-6-yl)imino)(cyclopropyl)(methyl)-λ^6-sulfanone]

EC50	SMILES
< 1000 nM	CS(=O)(=Nc1ccc2c(Nc3ccc(Cl)nc3)nccc2c1)C1CC1 (stereo in doubt) [Example 274, (S)-((1-((6-chloropyridin-3-yl)amino)isoquinolin-6-yl)imino)(cyclopropyl)(methyl)-λ^6-sulfanone]
1000 to 10000 nM	CS(=O)(=Nc1ccc2c(Nc3ccc(Cl)nc3)nccc2c1)C1COC1 (stereo in doubt) [Example 276, (S)-((1-((6-chloropyridin-3-yl)amino)isoquinolin-6-yl)imino)(methyl)(oxetan-3-yl)-λ^6-sulfanone)]
1000 to 10000 nM	CS(=O)(=Nc1ccc2c(Nc3ccc(Cl)nc3)nccc2c1)C1COC1 (stereo in doubt) [Example 277, (R)-((1-((6-chloropyridin-3-yl)amino)isoquinolin-6-yl)imino)(methyl)(oxetan-3-yl)-λ^6-sulfanone)]
< 1000 nM	FC1(COc2ccc3c(Nc4ccc(Cl)nc4)nccc3c2)CCOC1 (stereo in doubt) [Example 364, (R)—N-(6-chloropyridin-3-yl)-6-((3-fluorotetrahydrofuran-3-yl)methoxy)isoquinolin-1-amine]
< 1000 nM	FC1(COc2ccc3c(Nc4ccc(Cl)nc4)nccc3c2)CCOC1 (stereo in doubt) [Example 365, (S)—N-(6-chloropyridin-3-yl)-6-((3-fluorotetrahydrofuran-3-yl)methoxy)isoquinolin-1-amine]
1000 to 10000 nM	CC(C)Oc1ccc2c(Nc3ccc(Cl)nc3)nccc2c1 [Example 1, N-(6-chloropyridin-3-yl)-6-isopropoxyisoquinolin-1-amine]
< 1000 nM	Clc1ccc(Nc2nccc3cc(OCC4CC4)ccc23)cn1 [Example 2, N-(6-chloropyridin-3-yl)-6-(cyclopropylmethoxy)isoquinolin-1-amine]
1000 to 10000 nM	CCCOc1ccc2c(Nc3ccc(Cl)nc3)nccc2c1 [Example 3, N-(6-chloropyridin-3-yl)-6-propoxyisoquinolin-1-amine]
1000 to 10000 nM	COCCOc1ccc2c(Nc3ccc(Cl)nc3)nccc2c1 [Example 4, N-(6-chloropyridin-3-yl)-6-(2-methoxyethoxy)isoquinolin-1-amine]
1000 to 10000 nM	Clc1ccc(Nc2nccc3cc(OCc4ccccn4)ccc23)cn1 [Example 5, N-(6-chloropyridin-3-yl)-6-(pyridin-2-ylmethoxy)isoquinolin-1-amine]
1000 to 10000 nM	CC1(C)CCC(COc2ccc3c(Nc4ccc(Cl)nc4)nccc3c2)O1 (stereo not drawn) [Example 6, N-(6-chloropyridin-3-yl)-6-((5,5-dimethyltetrahydrofuran-2-yl)methoxy)isoquinolin-1-amine]
1000 to 10000 nM	FC(F)Oc1ccc2c(Nc3ccc(Cl)nc3)nccc2c1 [Example 7, N-(6-chloropyridin-3-yl)-6-(difluoromethoxy)isoquinolin-1-amine]
1000 to 10000 nM	Clc1ccc(Nc2nccc3cc(Oc4ccccc4)ccc23)cn1 [Example 8, N-(6-chloropyridin-3-yl)-6-phenoxyisoquinolin-1-amine]
< 1000 nM	Clc1ncc(Nc2nccc3cc(OCC4CC4)ccc23)cn1 [Example 9, N-(2-chloropyrimidin-5-yl)-6-(cyclopropylmethoxy)isoquinolin-1-amine]
10000 to 30000 nM	COC(=O)c1ccc2c(Nc3ccc(Cl)nc3)nccc2c1 [Example 10, methyl 1-((6-chloropyridin-3-yl)amino)isoquinoline-6-carboxylate]
1000 to 10000 nM	Clc1ccc(Nc2nccc3sccc23)cn1 [Example 11, N-(6-chloropyridin-3-yl)thieno[3,2-c]pyridin-4-amine formate]
1000 to 10000 nM	Clc1ccc(Nc2nccc3ccsc23)cn1 [Example 12, N-(6-chloropyridin-3-yl)thieno[2,3-c]pyridin-7-amine]
1000 to 10000 nM	Clc1ccc(Nc2nccc3scnc23)cn1 [Example 13, N-(6-chloropyridin-3-yl)thiazolo[4,5-c]pyridin-4-amine]
